The numbers were not newly measured in patent US11229230B2, “Antioxidant-enriched multivitamin composition and methods of use” (Callion Pharma, LLC, priority 2016, dated 2022), which cites them from elsewhere.

Each structure is given as a SMILES string.

The test system of one data set is cystic fibrosis patients. To be noted: inhaled.
The test system of another data set is cystic fibrosis. The conditions noted are these: oral treatment, Phase II clinical study.

As to `N[C@@H](CCC(=O)N[C@@H](CS)C(=O)NCC(=O)O)C(=O)O` [glutathione], the “effectiveness in cystic fibrosis” value in the data set with cystic fibrosis patients is “has not been effective”.
Consider `CC(=O)N[C@@H](CS)C(=O)O` [N-acetylcysteine], for which the lung function entry with cystic fibrosis is recorded as “did not improve lung function”.
